# Measured values from US11071747B2, “Use of NAD precursors for breast enhancement” (UNIVERSITY OF IOWA RESEARCH FOUNDATION, priority 2016, dated 2021).
# Entries after “also recorded” stand apart in the source; their conditions may differ.
# Legend:
# [1] = tested on: mammary glands of lactating mice; assay: NR-supplemented diet in lactating female mice, mammary gland mass and Carmine/Alum staining; assay type: in vivo, C57BL/6N mice
# Description: FIGS. 1A-B. NR increases the mass of mammary glands of lactating mice. C57BL/6 female mice were fed normal chow (NC) diet and mated to a C57BL/6 male. After gestation and birth, females remained on NC or were on or a diet supplemented with 3 g/kg nicotinamide riboside chloride (NR). At day 14, the females were sacrificed and mammary glands 1-5 were removed for analysis. FIG. 1A. […] FIG. 1B. Mammary glands 4 and 5 isolated from lactating females were stained with Carmine/Alum staining.
# The data are based on a trial with female C57BL/6N mice raised in 12 hour light:dark cycles on Teklad 2920X chow (NC). It was asked whether addition of NR chloride (3 g/kg of chow) to the diet of female mice would augment mammary tissue. Accordingly, for 12 weeks prior to mating with a single C57BL/6N male, females were on either NC (n=4) or NC+NR (n=4). Females were maintained on the same diet for 14 days post-partum.
# [2] = tested on: mammary gland #4-5 and brown adipose tissue of female rats; assay: NR diet in virgin female rats, mammary gland and brown adipose tissue weight; assay type: in vivo; conditions: NR diet vs normal chow
# Protocol: FIGS. 3A-C. […] Adipose tissues of female rats on normal chow diet (NC) or normal chow with nicotinamide riboside (NR). FIG. 3A. Mammary gland #4-5 were isolated and the weight was recorded. […] FIG. 3B. Images of dissected mammary gland #4-5. FIG. 3C. Weight of brown adipose tissue (BAT). To determine if the effect of NR on females was a mouse-specific phenomenon, additional experiments were performed. Specifically, virgin female rats were fed either NC or NR diets prior to dissection.
# mammary glands #4 and 5 = assay: NR diet for six weeks in eight month-old female and male mice, mammary gland weight; assay type: in vivo; conditions: NR diet six weeks vs NC
# Protocol: FIG. 4. NR increases mammary gland tissue weight of female but not male mice. Eight month-old mice were put on NC or NR diet for six weeks. Mammary glands #4 and 5 were measured and plotted by normalizing to the body weight of each mouse. […] In FIG. 4, eight month-old mice were put on normal chow (NC) or NC+NR (NR) diets for six weeks. Mammary glands #4 and 5 were measured and plotted by normalizing to the body weight of each mouse.
# [3] = tested on: mammary glands #4-5 of female mice; assay: Xylene extraction of fat from stained mammary glands of NR-fed female mice; assay type: in vivo; conditions: eight month-old female mice, NR diet six weeks
# Description: FIGS. 5A-B. NR-supplemented mammary tissue is partially resistant to xylene extraction. FIG. 5A. […] Eight month-old female mice were on NC or NR diet for six weeks. Mammary glands #4-5 were isolated, fixed, stained with Carmine/Alum stain and xylene was use to extract fat. […] FIG. 5B. NR-fed rats have mammary gland with a different fat composition. […] Eight month-old female mice were on NC or NR diet for six weeks. Mammary glands #4-5 were isolated, fixed, stained with Carmine/Alum stain and subjected to an extraction with xylene to remove fat.
# [4] = tested on: mammary glands of female rodents; assay: NR-supplemented diet in adult female rodents, overall findings; assay type: in vivo, mice and rats
# Protocol: As described herein, a series of experiments were performed to examine the effect of nicotinamide riboside (NR) on mammary tissue. It was determined that the provision of NR in the diet of female mice and female rats promoted mammary development (e.g., increases mammary gland tissue weight). […] These experiments show the unanticipated and potentially value effect of supplementing females with NR or other NAD precursors.
# mammary gland of rats = assay: Xylene clearing of mammary adipose tissue of NR-fed rats; assay type: in vivo
# Description: FIGS. 5A-B. NR-supplemented mammary tissue is partially resistant to xylene extraction. FIG. 5A. […] Eight month-old female mice were on NC or NR diet for six weeks. Mammary glands #4-5 were isolated, fixed, stained with Carmine/Alum stain and xylene was use to extract fat. […] FIG. 5B. NR-fed rats have mammary gland with a different fat composition.
# [5] = tested on: mammary glands of virgin female mice; assay: NR oral supplementation in virgin female mice, mammary gland development; assay type: in vivo
# Description: FIGS. 2A-E. NR oral supplementation promotes mammary gland development in virgin female mice (non-lactating females). FIG. 2A. […] FIG. 2B. Carmine/Alum staining of mammary glands. FIG. 2C. Quantification of mammary gland ductal length can be assessed by taking the measurement of the left (L1), right (L2), top (L3) and bottom (L4) branchings expressed in cm. FIG. 2D. […] FIG. 2E.
smiles,measurement,setting,value
"NC(=O)c1ccc[n+]([C@@H]2O[C@H](CO)[C@@H](O)[C@H]2O)c1 [NR, nicotinamide riboside]",mass of mammary glands,"[1]; lactating C57BL/6 females, diet with 3 g/kg NR chloride vs normal chow, day 14 post-partum, mammary glands 1-5",more mammary tissue than those on normal chow; also recorded: more massive mammary glands
same,lactating mammary tissue (Carmine/Alum staining),"[1]; lactating females, mammary glands 4 and 5, NR diet vs normal chow",more lactating mammary tissue
same,weight of brown adipose tissue (BAT),[2]; female rats,increases the mass of mammary gland #4 and #5 and brown adipose tissue (BAT)
same,weight of mammary gland #4-5,[2]; virgin female rats,increased the size of mammary tissues in rats; also recorded: more mammary gland tissue
same,mammary gland #4 and 5 weight normalized to body weight,mammary glands #4 and 5; eight month-old female mice,more mammary gland tissue in comparison to the NC group
same,mammary gland #4 and 5 weight normalized to body weight,mammary glands #4 and 5; eight month-old male mice,no significant increase in mammary tissue weight
same,fat composition of the mammary gland,[3],changes the fat composition of the mammary gland
same,fat remaining in mammary glands after xylene extraction,[3]; 1 week of incubation in xylene,more fat remaining
same,development of beige or brown fat,"[4]; NR supplementation, female rodents",leads to development of beige or brown fat
same,"fat pad formation, epithelial branching, alveolar and lobule development of mammary glands","[4]; adult females, virginal or pregnant, diet supplemented with NR","increase in fat pad formation, epithelial branching, alveolar and lobule development"
same,clearing of mammary adipose tissue by xylene,mammary gland of rats,poorly cleared by xylene
same,mammary gland with beige fat,"[5]; twelve week-old virgin female mice, NR supplementation for two weeks",more mammary gland with beige fat
same,surface area of mammary gland #4-5,"[5]; virgin female mice, NR oral supplementation",increases the surface area of mammary gland #4-5
same,mammary gland ductal length measurements,"[5]; virgin female mice, NR oral supplementation, L1-L4 branchings",increases ductal length measurements
same,subcutaneous adipose tissue and epithelial duct branching,"[5]; virgin mice, not exposed to males",significant increase of the subcutaneous adipose tissue and epithelial duct branching
